Measurements from ChEMBL document CHEMBL4177730, “Rational modification of semaxanib and sunitinib for developing a tumor growth inhibitor targeting ATP binding site of tyrosine kinase” (2018).
The source made the active and inactive calls.

Key:
Assay type in all cases: functional, cell-based
CCRF-CEM = experiment: Growth inhibition of human CCRF-CEM cells at 10 uM after 48 hrs by sulforhodamine B assay
NCI-H226 = experiment: Growth inhibition of human NCI-H226 cells at 10 uM after 48 hrs by sulforhodamine B assay
K562 = experiment: Growth inhibition of human K562 cells at 10 uM after 48 hrs by sulforhodamine B assay
LOX IMVI = experiment: Growth inhibition of human LOXIMVI cells at 10 uM after 48 hrs by sulforhodamine B assay
HL-60(TB) = experiment: Growth inhibition of human HL-60(TB) cells at 10 uM after 48 hrs by sulforhodamine B assay
NCI-H460 = experiment: Growth inhibition of human NCI-H460 cells at 10 uM after 48 hrs by sulforhodamine B assay
MOLT-4 = experiment: Growth inhibition of human MOLT4 cells at 10 uM after 48 hrs by sulforhodamine B assay
SW-620 = experiment: Growth inhibition of human SW620 cells at 10 uM after 48 hrs by sulforhodamine B assay
T47D = experiment: Growth inhibition of human T47D cells at 10 uM after 48 hrs by sulforhodamine B assay
SF-295 = experiment: Growth inhibition of human SF295 cells at 10 uM after 48 hrs by sulforhodamine B assay
SNB-75 = experiment: Growth inhibition of human SNB75 cells at 10 uM after 48 hrs by sulforhodamine B assay
SK-OV-3 = experiment: Growth inhibition of human SKOV3 cells at 10 uM after 48 hrs by sulforhodamine B assay
SF-539 = experiment: Growth inhibition of human SF539 cells at 10 uM after 48 hrs by sulforhodamine B assay
TK-10 = experiment: Growth inhibition of human TK10 cells at 10 uM after 48 hrs by sulforhodamine B assay
HCT-116 = experiment: Growth inhibition of human HCT116 cells at 10 uM after 48 hrs by sulforhodamine B assay
Malme-3M = experiment: Growth inhibition of human MALME-3M cells at 10 uM after 48 hrs by sulforhodamine B assay
IGROV-1 = experiment: Growth inhibition of human IGROV1 cells at 10 uM after 48 hrs by sulforhodamine B assay
SK-MEL-2 = experiment: Growth inhibition of human SK-MEL-2 cells at 10 uM after 48 hrs by sulforhodamine B assay
SF-268 = experiment: Growth inhibition of human SF268 cells at 10 uM after 48 hrs by sulforhodamine B assay
EKVX = experiment: Growth inhibition of human EKVX cells at 10 uM after 48 hrs by sulforhodamine B assay
OVCAR-5 = experiment: Growth inhibition of human OVCAR5 cells at 10 uM after 48 hrs by sulforhodamine B assay
ACHN = experiment: Growth inhibition of human ACHN cells at 10 uM after 48 hrs by sulforhodamine B assay
786-0 = experiment: Growth inhibition of human 786-0 cells at 10 uM after 48 hrs by sulforhodamine B assay
HCC 2998 = experiment: Growth inhibition of human HCC2998 cells at 10 uM after 48 hrs by sulforhodamine B assay
MDA-MB-231 = experiment: Growth inhibition of human MDA-MB-231 cells at 10 uM after 48 hrs by sulforhodamine B assay
CAKI-1 = experiment: Growth inhibition of human CAKI-1 cells at 10 uM after 48 hrs by sulforhodamine B assay
HOP-92 = experiment: Growth inhibition of human HOP92 cells at 10 uM after 48 hrs by sulforhodamine B assay
M14 = experiment: Growth inhibition of human M14 cells at 10 uM after 48 hrs by sulforhodamine B assay
NCI-H322M = experiment: Growth inhibition of human NCI-H322M cells at 10 uM after 48 hrs by sulforhodamine B assay
RPMI-8226 = experiment: Growth inhibition of human RPMI8226 cells at 10 uM after 48 hrs by sulforhodamine B assay
OVCAR-8 = experiment: Growth inhibition of human OVCAR8 cells at 10 uM after 48 hrs by sulforhodamine B assay
DU-145 = experiment: Growth inhibition of human DU145 cells at 10 uM after 48 hrs by sulforhodamine B assay
NCI-H23 = experiment: Growth inhibition of human NCI-H23 cells at 10 uM after 48 hrs by sulforhodamine B assay
NCI-H522 = experiment: Growth inhibition of human NCI-H522 cells at 10 uM after 48 hrs by sulforhodamine B assay
HT-29 = experiment: Growth inhibition of human HT-29 cells at 10 uM after 48 hrs by sulforhodamine B assay
SNB-19 = experiment: Growth inhibition of human SNB19 cells at 10 uM after 48 hrs by sulforhodamine B assay
HOP-62 = experiment: Growth inhibition of human HOP62 cells at 10 uM after 48 hrs by sulforhodamine B assay
UACC-62 = experiment: Growth inhibition of human UACC62 cells at 10 uM after 48 hrs by sulforhodamine B assay
SK-MEL-5 = experiment: Growth inhibition of human SK-MEL-5 cells at 10 uM after 48 hrs by sulforhodamine B assay
MCF7 = experiment: Growth inhibition of human MCF7 cells at 10 uM after 48 hrs by sulforhodamine B assay
PC-3 = experiment: Growth inhibition of human PC3 cells at 10 uM after 48 hrs by sulforhodamine B assay
U-251 = experiment: Growth inhibition of human U251 cells at 10 uM after 48 hrs by sulforhodamine B assay
OVCAR-4 = experiment: Growth inhibition of human OVCAR4 cells at 10 uM after 48 hrs by sulforhodamine B assay
A498 = experiment: Growth inhibition of human A498 cells at 10 uM after 48 hrs by sulforhodamine B assay
Hs-578T = experiment: Growth inhibition of human Hs 578T cells at 10 uM after 48 hrs by sulforhodamine B assay
SR = experiment: Growth inhibition of human SR cells at 10 uM after 48 hrs by sulforhodamine B assay
KM12 = experiment: Growth inhibition of human KM12 cells at 10 uM after 48 hrs by sulforhodamine B assay
BT-549 = experiment: Growth inhibition of human BT549 cells at 10 uM after 48 hrs by sulforhodamine B assay
OVCAR-3 = experiment: Growth inhibition of human OVCAR3 cells at 10 uM after 48 hrs by sulforhodamine B assay
HCT-15 = experiment: Growth inhibition of human HCT15 cells at 10 uM after 48 hrs by sulforhodamine B assay
MDA-MB-468 = experiment: Growth inhibition of human MDA-MB-468 cells at 10 uM after 48 hrs by sulforhodamine B assay
MDA-MB-435 = experiment: Growth inhibition of human MDA-MB-435 cells at 10 uM after 48 hrs by sulforhodamine B assay
NCI/ADR-RES = experiment: Growth inhibition of human NCI-ADR-RES cells at 10 uM after 48 hrs by sulforhodamine B assay
RXF 393 = experiment: Growth inhibition of human RXF393 cells at 10 uM after 48 hrs by sulforhodamine B assay
A549 = experiment: Growth inhibition of human A549/ATCC cells at 10 uM after 48 hrs by sulforhodamine B assay
SN12C = experiment: Growth inhibition of human SN12C cells at 10 uM after 48 hrs by sulforhodamine B assay
UO-31 = experiment: Growth inhibition of human UO31 cells at 10 uM after 48 hrs by sulforhodamine B assay
COLO 205 = experiment: Growth inhibition of human COLO205 cells at 10 uM after 48 hrs by sulforhodamine B assay
SK-MEL-28 = experiment: Growth inhibition of human SK-MEL-28 cells at 10 uM after 48 hrs by sulforhodamine B assay

Measured: growth inhibition (GI)

Cc1ccc(S(=O)(=O)n2cccc2/C=C2\C(=O)N(c3c(Cl)cccc3Cl)c3ccccc32)cc1
inactive: CCRF-CEM | NCI-H226 | K562 | LOX IMVI | HL-60(TB) | NCI-H460 | MOLT-4 | SW-620 | T47D | SF-295 | SNB-75 | SK-OV-3 | SF-539 | TK-10 | HCT-116 | Malme-3M | IGROV-1 | SK-MEL-2 | SF-268 | EKVX | OVCAR-5 | ACHN | 786-0 | HCC 2998 | MDA-MB-231 | CAKI-1 | HOP-92 | M14 | NCI-H322M | RPMI-8226 | OVCAR-8 | DU-145 | NCI-H23 | NCI-H522 | HT-29 | SNB-19 | HOP-62 | UACC-62 | SK-MEL-5 | MCF7 | PC-3 | U-251 | OVCAR-4 | A498 | Hs-578T | SR | KM12 | BT-549 | OVCAR-3 | HCT-15 | MDA-MB-468 | MDA-MB-435 | NCI/ADR-RES | RXF 393 | A549 | SN12C | UO-31 | COLO 205 | SK-MEL-28
